{
  "source": "patent US9333202B2",
  "about": "“Non-retinoid antagonists for treatment of age-related macular degeneration and stargardt disease” (THE TRUSTEES OF COLUMBIA UNIVERSITY IN THE CITY OF NEW YORK, priority 2012, dated 2016)",
  "key": {"ERG b-wave": {"test_system": "ERG b-wave", "assay": "ERG b-wave after photobleaching", "details": "in vivo"}, "[1]": {"assay": "Observation of toxicity signs during 6 week chronic dosing", "type": "in vivo", "details": "6 week-long chronic dosing, 30 mg/kg daily oral", "method": "Ten week-old Abca4 null mutant mice (129/SV×C57BL/6J) bred as previously described were used in the study. Abca4−/− (knockout) and Abca4+/+(wild-type) mice were raised under 12 h on-off cyclic lighting with an in-cage illuminance of 30-50 lux. For long-term oral dosing A1120 was formulated into Purina 5035 rodent chow at Research Diets, Inc. (New Brunswick, N.J.) to ensure consistent 30 mg/kg daily oral dosing. Animals were administered the A1120-containing chow for 6 weeks.\nTo determine whether A1120 has an effect on retinal production of lipofuscin fluorophores we administered the compound at the daily 30 mg/kg dose to Abca4−/− mice for a period of 6 weeks. Blood samples collected from the treatment and control groups at baseline, Day 21 and Day 42 were used to measure serum RBP4 in order to correlate RBP4 levels with reduction in formation of lipofuscin bisretinoids. […] Levels of lipofuscin fluorophores (A2E, A2-DHP-PE and all-trans-retinal dimer-PE) were determined at the end of the 42-day treatment period using quantitative HPLC.\nAdministration of A1120 reduces the production of A2E, A2-DHP-PE, and atRAL di-PE in A1120-treated Abca4−/− mice in comparison to the vehicle-treated Abca4−/− animals by approximately 50%."}, "RBP4-TTR interaction": {"molecular_target": "RBP4-TTR interaction (Homo sapiens, UniProt P02753)", "assay": "HTRF/TR-FRET assay for retinol-dependent RBP4-TTR interaction (1 μM retinol)", "type": "biochemical", "parameters": "human RBP4 fragment (amino acids 19-201) was expressed in the Gold(DE3)pLysS E. coli strain; made in house; host or cells: E. coli Gold(DE3)pLysS (Stratagene), pMAL-c4x vector", "description": "Bacterially expressed MBP-RBP4 and untagged TTR were used in this assay. For the use in the TR-FRET assay the maltose binding protein (MBP)-tagged human RBP4 fragment (amino acids 19-201) was expressed in the Gold(DE3)pLysS E. coli strain (Stratagene) using the […] vector. Following cell lysis, recombinant RBP4 was purified from the soluble fraction using the ACTA FPLC system (GE Healthcare) equipped with the 5-ml the MBP Trap HP column. Human untagged TTR was purchased from Calbiochem. Untagged TTR was labeled directly with Eu^3+ Cryptate-NHS using the HTRF Cryptate Labeling kit from CisBio following the manufacturer's recommendations. HTRF assay was performed in white low volume 384 well plates (Greiner-Bio) in a final assay volume of 16 μl per well. The reaction buffer contained 10 mM Tris-HCl pH 7.5, 1 mM DTT, 0.05% NP-40, 0.05% Prionex, 6% glycerol, and 400 mM KF. Each reaction contained 60 nM MBP-RBP4 and 2 nM TTR-Eu along with 26.7 nM of anti-MBP antibody conjugated with d2 (Cisbio). Titration of test compounds in this assay was conducted in the presence of 1 μM retinol. All reactions were assembled in the dark under dim red light and incubated overnight at +4° C. wrapped in aluminum foil. TR-FRET signal was measured in the SpectraMax M5e Multimode Plate Reader (Molecular Device). Fluorescence was excited at 337 nm and two readings per well were taken: Reading 1 for time-gated energy transfer from Eu(K) to d2 (337 nm excitation, 668 nm emission, counting delay 75 microseconds, counting window 100 microseconds) and Reading 2 for Eu(K) time-gated fluorescence (337 nm excitation, 620 nm emission, counting delay 400 microseconds, counting window 400 microseconds). The TR-FRET signal was expressed as the ratio of fluorescence intensity: Flu665/Flu620×10,000."}},
  "note": "Entries after “also recorded” stand apart in the source; their conditions may differ.",
  "data": [
    {"smiles": "O=C(O)c1ccccc1NC(=O)N1CCC(c2ccccc2C(F)(F)F)CC1", "note": "[Compound 1, 2(4-(2-(trifluoromethyl)phenyl)piperidine-1-carboxamido)benzoic acid]", "values": [
      {"measurement": "Effect on ERG b-wave after photobleaching", "setting": "ERG b-wave", "value": "does not reduce ERG b-wave after photobleaching"},
      {"measurement": "Signs of compound toxicity such as weight loss or reduction in food consumption", "setting": "[1]", "value": "did not note any obvious signs of compound toxicity"},
      {"measurement": "Antagonism of RBP4-TTR interaction in vitro (in words)", "setting": "RBP4-TTR interaction", "value": "antagonize retinol-dependent RBP4-TTR interaction; also recorded: disrupt retinol-induced RBP4-TTR interaction; also recorded: antagonize RBP4-TTR interaction in vitro at biologically significant concentrations"}
    ]}
  ]
}
